In patent US11267800B2, “Cyclohexyl acid triazole azines as LPA antagonists” (BRISTOL-MYERS SQUIBB COMPANY, priority 2017, dated 2022) one finds IC50 data, which are given here for 53 compounds.

Structures are written as SMILES.

The assay deals with T1, human LPA1 (Homo sapiens, UniProt Q92633).
T1 construct: expressed in transfected cells; host or cells: Chinese hamster ovary (CHO) cells
T1 sequence (Q92633 whole entry): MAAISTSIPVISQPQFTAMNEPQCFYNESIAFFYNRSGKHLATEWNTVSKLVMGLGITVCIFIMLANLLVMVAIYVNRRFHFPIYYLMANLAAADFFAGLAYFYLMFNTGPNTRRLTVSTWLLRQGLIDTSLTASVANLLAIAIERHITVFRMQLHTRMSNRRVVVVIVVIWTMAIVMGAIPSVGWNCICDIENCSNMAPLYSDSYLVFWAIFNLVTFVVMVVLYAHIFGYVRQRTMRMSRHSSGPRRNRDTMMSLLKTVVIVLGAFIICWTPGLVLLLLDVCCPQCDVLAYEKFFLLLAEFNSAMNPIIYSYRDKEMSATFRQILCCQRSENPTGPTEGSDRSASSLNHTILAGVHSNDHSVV
In words: LPA1 functional antagonist assay (calcium flux). It counts as cell-based. Particulars: CHO cells overexpressing human LPA1; inhibition of calcium flux induced by 10 nM LPA; read-out: hLPA1 IC50. The method, boiled down:
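Dye-loaded CHO cells overexpressing human LPA1 (30 min, 37 °C) were preincubated 20 min at room temperature with compound (0.08 nM–5 μM; 0.5% DMSO; HBSS, 20 mM HEPES, 0.1% fatty-acid-free BSA), then stimulated with 10 nM LPA. IC50 is the concentration inhibiting 50% of LPA-induced calcium flux, from a 4-parameter logistic fit.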
In general terms: A change in cytosolic calcium serves as a functional read-out for many receptors and channels.
Regarding `CCOc1cccc(Nc2c(-c3ccc(O[C@H]4CCC[C@H](C(=O)O)C4)cn3)nnn2C)n1` [Example 248, (1S,3S)-3-((6-(5-((6-ethoxypyridin-2-yl)amino)-1-methyl-1H-1,2,3-triazol-4-yl)pyridin-3-yl)oxy)cyclohexane-1-carboxylic acid], the IC50 came out at 111 nM.
Take `Cc1nc(-c2nnn(C)c2COc2ncc(F)c(NC(C)C)n2)ccc1O[C@H]1CCC[C@H](C(=O)O)C1` [Example 252, (1S,3S)-3-((6-(5-(((5-fluoro-4-(isopropylamino)pyrimidin-2-yl)oxy)methyl)-1-methyl-1H-1,2,3-triazol-4-yl)-2-methylpyridin-3-yl)oxy)cyclohexane-1-carboxylic acid]: the IC50 came out at 65 nM.
Then `Cc1nc(-c2nnn(C)c2CN(C)c2nccc(OC3CC3)n2)ccc1O[C@H]1CCC[C@H](C(=O)O)C1` [Example 253, (1S,3S)-3-((6-(5-(((4-cyclopropoxypyrimidin-2-yl)(methyl)amino)methyl)-1-methyl-1H-1,2,3-triazol-4-yl)-2-methylpyridin-3-yl)oxy)cyclohexane-1-carboxylic acid], with 28 nM; and `Cc1nc(-c2nnn(C)c2COc2cccc(C(C)C)c2)ccc1O[C@H]1CCC[C@H](C(=O)O)C1` [Example 254, (1S,3S)-3-((6-(5-((3-isopropylphenoxy)methyl)-1-methyl-1H-1,2,3-triazol-4-yl)-2-methylpyridin-3-yl)oxy)cyclohexane-1-carboxylic acid], with 5.9 nM; and `Cc1nc(-c2nnn(C)c2COc2cc(OC(F)F)ncn2)ccc1O[C@H]1CCC[C@H](C(=O)O)C1` [Example 255, (1S,3S)-3-((6-(5-(((6-(difluoromethoxy)pyrimidin-4-yl)oxy)methyl)-1-methyl-1H-1,2,3-triazol-4-yl)-2-methylpyridin-3-yl)oxy)cyclohexane-1-carboxylicacid], with 12.9 nM.
For `CCc1cc(OCc2c(-c3ccc(O[C@H]4CCC[C@H](C(=O)O)C4)c(C)n3)nnn2C)ncn1` [Example 256, (1S,3S)-3-((6-(5-(((6-ethylpyrimidin-4-yl)oxy)methyl)-1-methyl-1H-1,2,3-triazol-4-yl)-2-methylpyridin-3-yl)oxy)cyclohexane-1-carboxylic acid], the IC50 was determined as 22 nM.
With `CCc1cc(OCc2c(-c3ccc(O[C@H]4CCC[C@H](c5nnn[nH]5)C4)c(C)n3)nnn2C)ncn1` [Example 257, 4-((4-(5-(((1S,3S)-3-(1H-tetrazol-5-yl)cyclohexyl)oxy)-6-methylpyridin-2-yl)-1-methyl-1H-1,2,3-triazol-5-yl)methoxy)-6-ethylpyrimidine] the figure was 69 nM; with `[2H]C([2H])([2H])C([2H])([2H])Oc1nccc(NCc2c(-c3ccc(O[C@H]4CCC[C@H](C(=O)O)C4)c(C)n3)nnn2C)n1` [Example 258], 1880 nM.
Then `CCOc1ccnc(NCc2c(-c3cnc(O[C@H]4CCC[C@H](C(=O)O)C4)c(C)n3)nnn2C)n1` [Example 259], with 131 nM; and `C=CCCc1ccnc(NCc2c(-c3ccc(O[C@H]4CCC[C@H](C(=O)O)C4)c(C)n3)nnn2C)n1` [Example 260], with 3.4 nM.
Then `Cc1nc(-c2nnn(C)c2CNc2ccnc(OC3CC(F)(F)C3)n2)ccc1O[C@H]1CCC[C@H](C(=O)O)C1` [Example 261], with 124 nM; and `Cc1nc(-c2nnn(C)c2CNc2nccc(OC3CC(F)(F)C3)n2)ccc1O[C@H]1CCC[C@H](C(=O)O)C1` [Example 262], with 50 nM.
On to `CCCNc1nc(OCc2c(-c3ccc(O[C@H]4CCC[C@H](C(=O)O)C4)c(C)n3)nnn2C)ncc1F` [Example 263], for which the half-maximal inhibitory concentration (IC50) amounted to 96 nM.
In the case of `CCNc1nc(OCc2c(-c3ccc(O[C@H]4CCC[C@H](C(=O)O)C4)c(C)n3)nnn2C)ncc1F` [Example 264], the IC50 is 76 nM.
Then `Cc1nc(-c2nnn(C)c2CNc2ncc(F)c(NCCOc3ccc(F)cc3)n2)ccc1O[C@H]1CCC[C@H](C(=O)O)C1` [Example 265], with 44 nM; and `Cc1nc(-c2nnn(C)c2CNc2cccc(C(C)C)n2)ccc1O[C@H]1CCC[C@H](C(=O)O)C1` [Example 266], with 87 nM; and `Cc1nc(-c2nnn(C)c2CNc2ccnc(C(C)C)n2)ccc1O[C@H]1CCC[C@H](C(=O)O)C1` [Example 267], with 278 nM.
`CCOc1cccc(OCc2c(-c3ccc(O[C@H]4CCC[C@H](C(=O)O)C4)c(C)n3)nnn2C)c1` [Example 268]: the IC50 turned out to be 51 nM.
With `Cc1nc(-c2nnn(C)c2CN(C)c2nccc(OCC(C)F)n2)ccc1O[C@H]1CCC[C@H](C(=O)O)C1` (some centres unmarked) [Example 269], the IC50 came to 45 nM.
Then `CCOc1ccnc(OCc2c(-c3ccc(O[C@H]4CCC[C@H](C(=O)O)C4)c(C)n3)nnn2C)c1` [Example 270], with 5.3 nM; and `CCOc1ccnc(N(C)Cc2c(-c3ccc(O[C@H]4CCC[C@H](C(=O)O)C4)c(C)n3)nnn2C)n1` [Example 271], with 16 nM; and `CCOc1cc(NCc2c(-c3ccc(O[C@H]4CCC[C@H](C(=O)O)C4)c(C)n3)nnn2C)ncn1` [Example 272], with 163 nM.
With `CCOc1cc(OCc2c(-c3ccc(O[C@H]4CCC[C@H](C(=O)O)C4)c(C)n3)nnn2C)ncn1` [Example 273] the figure was 13 nM; with `Cc1nc(-c2nnn(C)c2COc2cc(OC3CC3)ncn2)ccc1O[C@H]1CCC[C@H](C(=O)O)C1` [Example 274], 26 nM; with `Cc1nc(-c2nnn(C)c2COc2cc(C3CC3)ncn2)ccc1O[C@H]1CCC[C@H](C(=O)O)C1` [Example 275], 15 nM.
Then `Cc1nc(-c2nnn(C)c2COc2cc(OC3CC3)ccn2)ccc1O[C@H]1CCC[C@H](C(=O)O)C1` [Example 276], with 8.7 nM.
Take `Cc1nc(-c2nnn(C)c2COc2cc(C(C)C)ncn2)ccc1O[C@H]1CCC[C@H](C(=O)O)C1` [Example 277]: the IC50 is 24 nM.
Then `COc1cc(OCc2c(-c3ccc(O[C@H]4CCC[C@H](C(=O)O)C4)c(C)n3)nnn2C)nc(OC)n1` [Example 279], with 140 nM.
For `CCc1ccnc(OCc2c(-c3ccc(O[C@H]4CCC[C@H](C(=O)O)C4)c(C)n3)nnn2C)c1` [Example 280], the IC50 was found to be 15.3 nM.
With `COc1ccnc(OCc2c(-c3ccc(O[C@H]4CCC[C@H](C(=O)O)C4)c(C)n3)nnn2C)c1` [Example 281] the figure was 365 nM; with `Cc1nc(-c2nnn(C)c2COc2ccnc(C3CC3)n2)ccc1O[C@H]1CCC[C@H](C(=O)O)C1` [Example 282], 37 nM.
Consider `Cc1nc(-c2nnn(C)c2COc2cc(C3CC3)ccn2)ccc1O[C@H]1CCC[C@H](C(=O)O)C1` [Example 283], for which the IC50 came to 8.8 nM.
With `CCOc1cnnc(OCc2c(-c3ccc(O[C@H]4CCC[C@H](C(=O)O)C4)c(C)n3)nnn2C)c1` [Example 284] the figure was 147 nM; with `COCCCOc1cc(OCc2c(-c3ccc(O[C@H]4CCC[C@H](C(=O)O)C4)c(C)n3)nnn2C)ncn1` [Example 285], 61 nM.
On to `Cc1nc(-c2nnn(C)c2COc2cc(C(C)(C)C)ncn2)ccc1O[C@H]1CCC[C@H](C(=O)O)C1` [Example 286], for which the IC50 worked out at 135 nM.
With `Cc1nc(-c2nnn(C)c2COc2ccnc(C(C)C)n2)ccc1O[C@H]1CCC[C@H](C(=O)O)C1` [Example 287] the figure was 41 nM.
Then `Cc1nc(-c2nnn(C)c2COc2cc(C(F)(F)F)cc(C#N)n2)ccc1O[C@H]1CCC[C@H](C(=O)O)C1` [Example 288], with 308 nM; and `Cc1nc(-c2nnn(C)c2COc2cc(OC(C)C)ncn2)ccc1O[C@H]1CCC[C@H](C(=O)O)C1` [Example 290], with 30 nM; and `COc1ncnc(OCc2c(-c3ccc(O[C@H]4CCC[C@H](C(=O)O)C4)c(C)n3)nnn2C)c1C` [Example 291], with 3280 nM.
Then `Cc1nc(-c2nnn(C)c2COc2ncnc(OC3CC3)c2C)ccc1O[C@H]1CCC[C@H](C(=O)O)C1` [Example 292], with 390 nM; and `CCc1ncnc(OCc2c(-c3ccc(O[C@H]4CCC[C@H](C(=O)O)C4)c(C)n3)nnn2C)c1C` [Example 293], with 78 nM; and `CCCc1cc(OCc2c(-c3ccc(O[C@H]4CCC[C@H](C(=O)O)C4)c(C)n3)nnn2C)ncn1` [Example 294], with 85 nM.
Consider `Cc1nc(-c2nnn(C)c2COc2cc(C(F)(F)F)ncn2)ccc1O[C@H]1CCC[C@H](C(=O)O)C1` [Example 295], for which the IC50 amounted to 21 nM.
Then `Cc1nc(-c2nnn(C)c2COc2cc(C(F)F)ncn2)ccc1O[C@H]1CCC[C@H](C(=O)O)C1` [Example 296], with 16 nM; and `[2H]C([2H])([2H])Oc1cc(OCc2c(-c3ccc(O[C@H]4CCC[C@H](C(=O)O)C4)c(C)n3)nnn2C)ncn1` [Example 297], with 16 nM.
Consider `Cc1nc(-c2nnn(C)c2COc2cc(N3CCCC3)ncn2)ccc1O[C@H]1CCC[C@H](C(=O)O)C1` [Example 298], for which the IC50 amounted to 121 nM.
Consider `COCc1cc(OCc2c(-c3ccc(O[C@H]4CCC[C@H](C(=O)O)C4)c(C)n3)nnn2C)ncn1` [Example 299], for which the IC50 came out at 67 nM.
In the case of `CCc1cncc(OCc2c(-c3ccc(O[C@H]4CCC[C@H](C(=O)O)C4)c(C)n3)nnn2C)n1` [Example 300], the IC50 turned out to be 31 nM.
Then `CCc1ccnc(OCc2c(-c3ccc(O[C@H]4CCC[C@H](C(=O)O)C4)c(C)n3)nnn2C)n1` [Example 301], with 7.9 nM.
As to `Cc1nc(-c2nnn(C)c2COc2nccc(C3CC3)n2)ccc1O[C@H]1CCC[C@H](C(=O)O)C1` [Example 302], the concentration for half-maximal inhibition (IC50) turned out to be 7.5 nM.
As for `Cc1nc(-c2nnn(C)c2COc2cc(NC3CC3)ncn2)ccc1O[C@H]1CCC[C@H](C(=O)O)C1` [Example 303], the IC50 stood at 64 nM.
Then `Cc1nc(-c2nnn(C)c2COc2cc(Cl)ncn2)ccc1O[C@H]1CCC[C@H](C(=O)O)C1` [Example 304], with 66 nM; and `Cc1nc(-c2nnn(C)c2COc2nccc(C(F)(F)F)n2)ccc1O[C@H]1CCC[C@H](C(=O)O)C1` [Example 305], with 11 nM.

As usually defined, the IC50 is the concentration that inhibits the measured activity by half.
